What all share (type): binding
The subject of experiment [1] is human monoclonal antibody CRJA.
Experiment [2] concerns human monoclonal antibody CRJB.
Experiment [3] has as its system human monoclonal antibody CR57.
For experiment [4], the system named is human monoclonal antibody CR57. The source holds these as a separate data set.
The subject of experiment [5] is human monoclonal antibody CRJB. The source holds these as a separate data set.
Experiment [6] relates to human monoclonal antibody CRJA. The source holds these as a separate data set.

Experimental findings from patent publication US20060263802A1 (priority 2003, published 2006) are described below.

SVRTWNEILPSKGCL: the “Binding of CRJA (10 μg/ml) to looped/cyclic peptide (PEPSCAN-ELISA)” value in experiment [1] was found to be 165. The “Binding of CRJB to linear peptide (PEPSCAN-ELISA signal)” value (“Binding of CRJB to linear peptide” for short) in experiment [2] came out at 138. Further, in experiment [3], the “Binding of CR57 to linear peptide (PEPSCAN-ELISA signal)” value (“Binding of CR57 to linear peptide” below) worked out at 106. For the same sequence, the “Binding of CR57 (10 μg/ml) to looped/cyclic peptide (PEPSCAN-ELISA)” value in experiment [4] was determined as 151. In experiment [5], the “Binding of CRJB (10 μg/ml) to looped/cyclic peptide (PEPSCAN-ELISA)” value amounted to 147. Besides, the “Binding of CRJA to linear peptide (PEPSCAN-ELISA signal)” value (shortened to “Binding of CRJA to linear peptide”) in experiment [6] turned out to be 123.
Take NNLVVEDEGCTNLSG: in experiment [1], the “Binding of CRJA (10 μg/ml) to looped/cyclic peptide (PEPSCAN-ELISA signal)” value is on record as 88. Further, the “Binding of CRJB to linear peptide” value in experiment [2] was 99. Also, in experiment [3], the “Binding of CR57 to linear peptide” value is on record as 72. Besides, in experiment [4], the “Binding of CR57 (10 μg/ml) to looped/cyclic peptide (PEPSCAN-ELISA signal)” value turned out to be 86. Also, in experiment [5], the “Binding of CRJB (10 μg/ml) to looped/cyclic peptide (PEPSCAN-ELISA signal)” value is 75. In experiment [6], the “Binding of CRJA to linear peptide” value came to 93.
As to KLCGVLGLRLMDGTW, in experiment [1], the “Binding of CRJA (10 μg/ml) to looped/cyclic peptide (PEPSCAN-ELISA)” value worked out at 82. In addition, the “Binding of CRJB to linear peptide” value in experiment [2] came to 132. Moreover, in experiment [3], the “Binding of CR57 to linear peptide” value was determined as 3152, the “binding of antibody CR57 to linear peptide (PEPSCAN OD)” value is listed as “bound” and the “strength of binding of CR57 (OD value compared with the other peptides / twice the average value)” value is reported as “most prominent”. The “Binding of CR57 (10 μg/ml) to looped/cyclic peptide (PEPSCAN-ELISA)” value in experiment [4] worked out at 120. The “Binding of CRJB (10 μg/ml) to looped/cyclic peptide (PEPSCAN-ELISA)” value in experiment [5] came to 68. The “Binding of CRJA to linear peptide” value in experiment [6] was 96.
Take WNEILPSKGCLRVGG: the “Binding of CRJA (10 μg/ml) to looped/cyclic peptide (PEPSCAN-ELISA)” value in experiment [1] stood at 96. For the same sequence, the “Binding of CRJB to linear peptide” value in experiment [2] is reported as 136. Further, the “Binding of CR57 to linear peptide” value in experiment [3] stood at 102. For the same sequence, in experiment [4], the “Binding of CR57 (10 μg/ml) to looped/cyclic peptide (PEPSCAN-ELISA)” value is recorded as 112. Further, the “Binding of CRJB (10 μg/ml) to looped/cyclic peptide (PEPSCAN-ELISA)” value in experiment [5] was 98. Further, in experiment [6], the “Binding of CRJA to linear peptide” value was 98.
In the case of MSCDIFTNSRGKRAS, the “Binding of CRJA (10 μg/ml) to looped/cyclic peptide (PEPSCAN-ELISA signal)” value in experiment [1] turned out to be 49. Also, in experiment [2], the “Binding of CRJB to linear peptide” value worked out at 110. Besides, the “Binding of CR57 to linear peptide” value in experiment [3] is on record as 46. In addition, in experiment [4], the “Binding of CR57 (10 μg/ml) to looped/cyclic peptide (PEPSCAN-ELISA signal)” value is on record as 71. Further, in experiment [5], the “Binding of CRJB (10 μg/ml) to looped/cyclic peptide (PEPSCAN-ELISA signal)” value came out at 73. In experiment [6], the “Binding of CRJA to linear peptide” value worked out at 71.
In the case of PYPDYRWLRTVKTTK, the “Binding of CRJA (10 μg/ml) to looped/cyclic peptide (PEPSCAN-ELISA signal)” value in experiment [1] is given as 76. The “Binding of CRJB to linear peptide” value in experiment [2] was found to be 93. In addition, the “Binding of CR57 to linear peptide” value in experiment [3] was 65. Also, the “Binding of CR57 (10 μg/ml) to looped/cyclic peptide (PEPSCAN-ELISA signal)” value in experiment [4] was determined as 88. Besides, the “Binding of CRJB (10 μg/ml) to looped/cyclic peptide (PEPSCAN-ELISA signal)” value in experiment [5] is reported as 92. Also, the “Binding of CRJA to linear peptide” value in experiment [6] turned out to be 84.
RKLVPGFGKAYTIFN: the “Binding of CRJA (10 μg/ml) to looped/cyclic peptide (PEPSCAN-ELISA)” value in experiment [1] was 44. In experiment [2], the “Binding of CRJB to linear peptide” value is 115. Moreover, the “Binding of CR57 to linear peptide” value in experiment [3] stood at 47. In experiment [4], the “Binding of CR57 (10 μg/ml) to looped/cyclic peptide (PEPSCAN-ELISA)” value is recorded as 52. Moreover, the “Binding of CRJB (10 μg/ml) to looped/cyclic peptide (PEPSCAN-ELISA)” value in experiment [5] was found to be 79. Besides, the “Binding of CRJA to linear peptide” value in experiment [6] was found to be 48.
Consider ADLDPYDRSLHSRVF, for which, in experiment [1], the “Binding of CRJA (10 μg/ml) to looped/cyclic peptide (PEPSCAN-ELISA signal)” value is given as 92. Besides, the “Binding of CRJB to linear peptide” value in experiment [2] came to 121. Moreover, in experiment [3], the “Binding of CR57 to linear peptide” value was 70. The “Binding of CR57 (10 μg/ml) to looped/cyclic peptide (PEPSCAN-ELISA signal)” value in experiment [4] came out at 93. Further, the “Binding of CRJB (10 μg/ml) to looped/cyclic peptide (PEPSCAN-ELISA signal)” value in experiment [5] was 73. The “Binding of CRJA to linear peptide” value in experiment [6] is 100.
For TIWMPENPRLGMSCD, the “Binding of CRJA (10 μg/ml) to looped/cyclic peptide (PEPSCAN-ELISA signal)” value in experiment [1] is reported as 102. Further, in experiment [2], the “Binding of CRJB to linear peptide” value is 106. For the same sequence, the “Binding of CR57 to linear peptide” value in experiment [3] worked out at 69. Also, the “Binding of CR57 (10 μg/ml) to looped/cyclic peptide (PEPSCAN-ELISA signal)” value in experiment [4] is given as 97. The “Binding of CRJB (10 μg/ml) to looped/cyclic peptide (PEPSCAN-ELISA signal)” value in experiment [5] amounted to 82. In experiment [6], the “Binding of CRJA to linear peptide” value was determined as 93.
VGYVTTTFKRKHFRP: the “Binding of CRJA (10 μg/ml) to looped/cyclic peptide (PEPSCAN-ELISA signal)” value in experiment [1] was determined as 100. Moreover, the “Binding of CRJB to linear peptide” value in experiment [2] amounted to 113. In addition, in experiment [3], the “Binding of CR57 to linear peptide” value was determined as 75. Also, the “Binding of CR57 (10 μg/ml) to looped/cyclic peptide (PEPSCAN-ELISA signal)” value in experiment [4] worked out at 117. Further, in experiment [5], the “Binding of CRJB (10 μg/ml) to looped/cyclic peptide (PEPSCAN-ELISA signal)” value amounted to 85. For the same sequence, in experiment [6], the “Binding of CRJA to linear peptide” value is 80.
For the sequence PDQLVNLHDFRSDEI, the “Binding of CRJA (10 μg/ml) to looped/cyclic peptide (PEPSCAN-ELISA)” value in experiment [1] was 46. For the same sequence, in experiment [2], the “Binding of CRJB to linear peptide” value was 106. Also, the “Binding of CR57 to linear peptide” value in experiment [3] was determined as 35. In addition, in experiment [4], the “Binding of CR57 (10 μg/ml) to looped/cyclic peptide (PEPSCAN-ELISA)” value is recorded as 70. Further, the “Binding of CRJB (10 μg/ml) to looped/cyclic peptide (PEPSCAN-ELISA)” value in experiment [5] turned out to be 73. Also, the “Binding of CRJA to linear peptide” value in experiment [6] is on record as 43.
Consider LVNLHDFRSDEIEHL, for which the “Binding of CRJA (10 μg/ml) to looped/cyclic peptide (PEPSCAN-ELISA)” value in experiment [1] came to 93. In experiment [2], the “Binding of CRJB to linear peptide” value is 104. In experiment [3], the “Binding of CR57 to linear peptide” value is 47. The “Binding of CR57 (10 μg/ml) to looped/cyclic peptide (PEPSCAN-ELISA)” value in experiment [4] was determined as 1. Further, the “Binding of CRJB (10 μg/ml) to looped/cyclic peptide (PEPSCAN-ELISA)” value in experiment [5] is 23. Further, the “Binding of CRJA to linear peptide” value in experiment [6] turned out to be 106.
In the case of TEAENYTNFVGYVTT, the “Binding of CRJA (10 μg/ml) to looped/cyclic peptide (PEPSCAN-ELISA signal)” value in experiment [1] amounted to 76. For the same sequence, the “Binding of CRJB to linear peptide” value in experiment [2] stood at 84. Moreover, the “Binding of CR57 to linear peptide” value in experiment [3] was determined as 68. Further, the “Binding of CR57 (10 μg/ml) to looped/cyclic peptide (PEPSCAN-ELISA signal)” value in experiment [4] worked out at 75. The “Binding of CRJB (10 μg/ml) to looped/cyclic peptide (PEPSCAN-ELISA signal)” value in experiment [5] came out at 60. Besides, the “Binding of CRJA to linear peptide” value in experiment [6] came to 86.
As for LDKLGPWSPIDIHHL, in experiment [1], the “Binding of CRJA (10 μg/ml) to looped/cyclic peptide (PEPSCAN-ELISA signal)” value amounted to 82. In addition, the “Binding of CRJB to linear peptide” value in experiment [2] is listed as 99. Moreover, in experiment [3], the “Binding of CR57 to linear peptide” value is listed as 55. For the same sequence, in experiment [4], the “Binding of CR57 (10 μg/ml) to looped/cyclic peptide (PEPSCAN-ELISA signal)” value is on record as 93. Also, the “Binding of CRJB (10 μg/ml) to looped/cyclic peptide (PEPSCAN-ELISA signal)” value in experiment [5] is 65. For the same sequence, the “Binding of CRJA to linear peptide” value in experiment [6] is reported as 59.
Turning to MELKVGYILAIKMNG, the “Binding of CRJA (10 μg/ml) to looped/cyclic peptide (PEPSCAN-ELISA signal)” value in experiment [1] came out at 66. The “Binding of CRJB to linear peptide” value in experiment [2] worked out at 141. Moreover, the “Binding of CR57 to linear peptide” value in experiment [3] is reported as 76. Also, in experiment [4], the “Binding of CR57 (10 μg/ml) to looped/cyclic peptide (PEPSCAN-ELISA signal)” value is on record as 71. For the same sequence, the “Binding of CRJB (10 μg/ml) to looped/cyclic peptide (PEPSCAN-ELISA signal)” value in experiment [5] worked out at 93. For the same sequence, the “Binding of CRJA to linear peptide” value in experiment [6] turned out to be 92.
As for KGACKLKLCGVLGLR, the “Binding of CRJA (10 μg/ml) to looped/cyclic peptide (PEPSCAN-ELISA)” value in experiment [1] is given as 50. The “Binding of CRJB to linear peptide” value in experiment [2] came to 111. In experiment [3], the “Binding of CR57 to linear peptide” value worked out at 181 and the “binding of antibody CR57 to linear peptide (PEPSCAN OD)” value was “bound”. In addition, the “Binding of CR57 (10 μg/ml) to looped/cyclic peptide (PEPSCAN-ELISA)” value in experiment [4] is on record as 78. Also, in experiment [5], the “Binding of CRJB (10 μg/ml) to looped/cyclic peptide (PEPSCAN-ELISA)” value is 60. The “Binding of CRJA to linear peptide” value in experiment [6] worked out at 50.
Take NLHDFRSDEIEHLVV: the “Binding of CRJA (10 μg/ml) to looped/cyclic peptide (PEPSCAN-ELISA)” value in experiment [1] is on record as 86. Also, the “Binding of CRJB to linear peptide” value in experiment [2] amounted to 113. Besides, in experiment [3], the “Binding of CR57 to linear peptide” value is recorded as 83. The “Binding of CR57 (10 μg/ml) to looped/cyclic peptide (PEPSCAN-ELISA)” value in experiment [4] amounted to 90. In addition, the “Binding of CRJB (10 μg/ml) to looped/cyclic peptide (PEPSCAN-ELISA)” value in experiment [5] worked out at 62. Moreover, in experiment [6], the “Binding of CRJA to linear peptide” value is given as 97.
